Measurements from US20210107953A1, “ACTIVE POLYPEPTIDE COMPOUND” (SHAANXI MICOT TECHNOLOGY LIMITED COMPANY, priority 2019, published 2021).

How the values were obtained:
[1] = system: ovary removed SD rats (OVX induced rat osteoporosis model); test: Bone mineral density (DXA) in ovariectomy-induced osteoporosis rats; format: in vivo; conditions: for 0 w Bone mineral density lumbar vertebra / 0 w Bone mineral density thigh bone: 0 w (before administration, baseline); for 25 w Bone mineral density lumbar vertebra / 25 w Bone mineral density thigh bone / 0-25 w percentage of change % lumbar vertebra (bone mineral density) / 0-25 w percentage of change % thigh bone (bone mineral density): 5 times a week; for 0-25 w percentage of change % lumbar vertebra (bone mineral density) / 0-25 w percentage of change % thigh bone (bone mineral density): 25 w vs before administration
Source text: The animals had free access to water. […] 1) Bone mineral density (BMD) was detected with a dual-energy X-ray bone densitometry (DXA) before model establishment (−13 w), before administration (0 w), and 6 w, 12 w, 25 w, 37 w and 49 w after administration. […] The data were represented by mean value±standard error. Percentage of bone mineral density change=(bone mineral density at the detection time point−bone density before administration)/bone density before administration*100%

[2] = system: retinoic acid-induced osteoporosis rats; test: CT detection of bone microstructure of thigh bone in retinoic acid-induced osteoporosis rats; format: in vivo, SD rats; conditions: RA-induced osteoporosis rats, 12 w
Protocol: The data were represented by mean value±standard error. After the experiment was completed, thigh bone on the right side of rats were collected, and subjected to CT detection, and […] (BV/TV), the number of trabeculae (TbN) and trabeculae spacing (TbSp) were calculated, and the results were shown in Table 4. An example was selected from each of Control group, Model group, abaloptide group, 20 μg/kg dosage group of Example 1, 20 μg/kg dosage group of Example 2 and 20 μg/kg dosage group of Example 5, and the scanned figures by micron X-ray 3D imaging system of trochlea of their thigh bone were shown in FIG. 1.

[3] = system: retinoic acid-induced osteoporosis rats; test: Three-point mechanical test of thigh bone in retinoic acid-induced osteoporosis rats; format: in vivo, SD rats; conditions: 12 w; for Peak load of three-point mechanics (thigh bone): RA-induced osteoporosis rats
Protocol: Experimental method: SD rats were administered by gavage to induce a rat osteoporosis model. After model establishment, the rats were randomly grouped according to bone mineral densities of thigh bone: (1) vehicle group (Control group): normal saline was subcutaneously administered in an equal volume to the test compound, and soybean oil was administered by gavage in an equal volume to retinoic acid; (2) Model group: normal saline of the same volume was subcutaneously administered; and administered with retinoic acid (RA) by gavage every other day to maintain osteoporosis state; (3) 20 μg dosage group of positive drug abaloptide (Aba-20): 10 μg/kg abaloptide was subcutaneously administered, and retinoic acid was administered by gavage every other day. Administration groups of three dosages were set for each test compound. −10 μg/kg dosage group of the test compound: 10 μg/kg test compound was subcutaneously administered, and retinoic acid was administered by gavage every other day. −20 μg/kg dosage group of the test compound: 20 μg/kg test compound was subcutaneously administered, and retinoic acid was administered by gavage every other day. −40 μg/kg dosage group of the test compound: 40 μg/kg test compound was subcutaneously administered, and retinoic acid was administered by gavage every other day. The administration was carried out 5 times a week, with normal saline as the diluent of test drug, and the administration successively lasted for 12 weeks. The induction dosage of retinoic acid was about 80 mg/kg and the maintenance dosage after model establishment was about 30 mg/Kg, and solvent of inducing agent was soybean oil. […] The thigh bone on the left was subjected to three-point bending test, and the thigh bone on the right was subjected to CT scan and was used to prepare a pathological section. Statistical analysis of data: the data were treated with SPSS 20 software. The data in line with normality test were subjected to one-way analysis of variance; and the data not in line with normality test were subjected to rank sum test. The data were represented by mean value±standard error.

[4] = 5 μg/kg subcutaneous, listed as abaloptide

Ala-Val-Ser-Glu-His-Gln-Leu-Leu-His-Asp-Lys-Gly-Lys-Ser-Ile-Gln-Asp-Leu-Arg-Arg-Arg-Glu-Leu-Leu-Glu-Lys-Leu-Leu-Ala-Lys-Leu-His-Thr-Ala-Tyr-Arg-Gly-Phe-Gly-Gly (AVSEHQLLHDKGKSIQDLRRRELLEKLLAKLHTAYRGFGG; The sequence is synthesized) [Example 3]
0 w Bone mineral density lumbar vertebra ([1]; 2.5 μg/kg group): 0.24 ± 0 g/cm^2
0 w Bone mineral density thigh bone ([1]; 2.5 μg/kg group): 0.23 ± 0 g/cm^2
25 w Bone mineral density lumbar vertebra ([1]; 2.5 μg/kg subcutaneous): 0.27 ± 0 g/cm^2
25 w Bone mineral density thigh bone ([1]; 2.5 μg/kg subcutaneous): 0.26 ± 0 g/cm^2
0-25 w percentage of change % lumbar vertebra (bone mineral density) ([1]; 2.5 μg/kg subcutaneous): 12.4 ± 2.2 %
0-25 w percentage of change % thigh bone (bone mineral density) ([1]; 2.5 μg/kg subcutaneous): 14.03 ± 1.81 %
0 w Bone mineral density lumbar vertebra ([1]; 5 μg/kg group): 0.24 ± 0 g/cm^2
0 w Bone mineral density thigh bone ([1]; 5 μg/kg group): 0.23 ± 0 g/cm^2
25 w Bone mineral density lumbar vertebra ([1]; 5 μg/kg subcutaneous): 0.29 ± 0.01 g/cm^2
25 w Bone mineral density thigh bone ([1]; 5 μg/kg subcutaneous): 0.29 ± 0.02 g/cm^2
0-25 w percentage of change % lumbar vertebra (bone mineral density) ([1]; 5 μg/kg subcutaneous): 20.41 ± 2.56 %
0-25 w percentage of change % thigh bone (bone mineral density) ([1]; 5 μg/kg subcutaneous): 27.19 ± 1.33 %
0 w Bone mineral density lumbar vertebra ([1]; 10 μg/kg group): 0.24 ± 0.01 g/cm^2
0 w Bone mineral density thigh bone ([1]; 10 μg/kg group): 0.23 ± 0 g/cm^2
25 w Bone mineral density lumbar vertebra ([1]; 10 μg/kg subcutaneous): 0.29 ± 0.01 g/cm^2
25 w Bone mineral density thigh bone ([1]; 10 μg/kg subcutaneous): 0.29 ± 0 g/cm^2
0-25 w percentage of change % lumbar vertebra (bone mineral density) ([1]; 10 μg/kg subcutaneous): 22.46 ± 2.25 %
0-25 w percentage of change % thigh bone (bone mineral density) ([1]; 10 μg/kg subcutaneous): 28.7 ± 1.6 %
BV/TV (CT, thigh bone) ([2]; 10 μg/kg subcutaneous): 0.33
TbN, number of trabeculae (CT, thigh bone) ([2]; 10 μg/kg subcutaneous): 4.17 mm^−1
TbSp, trabeculae spacing (CT, thigh bone) ([2]; 10 μg/kg subcutaneous): 0.20 mm
BV/TV (CT, thigh bone) ([2]; 20 μg/kg subcutaneous): 0.30
TbN, number of trabeculae (CT, thigh bone) ([2]; 20 μg/kg subcutaneous): 4.21 mm^−1
TbSp, trabeculae spacing (CT, thigh bone) ([2]; 20 μg/kg subcutaneous): 0.17 mm
BV/TV (CT, thigh bone) ([2]; 40 μg/kg subcutaneous): 0.39
TbN, number of trabeculae (CT, thigh bone) ([2]; 40 μg/kg subcutaneous): 4.22 mm^−1
TbSp, trabeculae spacing (CT, thigh bone) ([2]; 40 μg/kg subcutaneous): 0.15 mm
Peak load of three-point mechanics (thigh bone) ([3]; 10 μg/kg subcutaneous): 97.65 N
Peak load of three-point mechanics (thigh bone) ([3]; 20 μg/kg subcutaneous): 126.54 N
Peak load of three-point mechanics (thigh bone) ([3]; 40 μg/kg subcutaneous): 131.74 N

abaloptide [reference compound]
0 w Bone mineral density lumbar vertebra ([1]; 5 μg/kg group): 0.24 ± 0 g/cm^2
0 w Bone mineral density thigh bone ([1]; 5 μg/kg group): 0.23 ± 0 g/cm^2
25 w Bone mineral density lumbar vertebra ([1]; 5 μg/kg subcutaneous): 0.3 ± 0 g/cm^2
25 w Bone mineral density thigh bone ([1]; 5 μg/kg subcutaneous): 0.3 ± 0 g/cm^2
0-25 w percentage of change % lumbar vertebra (bone mineral density) ([1]; 5 μg/kg subcutaneous): 21.66 ± 2.12 %
0-25 w percentage of change % thigh bone (bone mineral density) ([1]; 5 μg/kg subcutaneous): 30.28 ± 2 %
0-25 w percentage of change % lumbar vertebra (bone mineral density) [1, 4]: 21.66±2.12%
0-25 w percentage of change % thigh bone (bone mineral density) [1, 4]: 30.28±2%
BV/TV (CT, thigh bone) ([2]; 20 μg/kg subcutaneous): 0.28
TbN, number of trabeculae (CT, thigh bone) ([2]; 20 μg/kg subcutaneous): 3.4 mm^−1
TbSp, trabeculae spacing (CT, thigh bone) ([2]; 20 μg/kg subcutaneous): 0.22 mm
peak load of thigh bone compared with Model group ([3]; 20 μg/kg dosage group): did not significantly increase
Peak load of three-point mechanics (thigh bone) ([3]; 20 μg/kg subcutaneous): 119.57 N
